Each compound was assayed against T1, human chemokine receptor 2 isoform B (CCR2B) (Homo sapiens, UniProt P41597) (assay: Calcium mobilization assay (FLIPR, MCP-1 stimulated CHOK1-CCR2B-A5 cells)). Details: 20 nM MCP-1, antagonist activity, read-out: IC50 (inhibitor concentration required for 50% inhibition of specific calcium increases).
T1 construct: host or cells: CHO-K1 (CHOK1-CCR2B-A5)
T1 sequence (P41597 1-360 isoform P41597-2): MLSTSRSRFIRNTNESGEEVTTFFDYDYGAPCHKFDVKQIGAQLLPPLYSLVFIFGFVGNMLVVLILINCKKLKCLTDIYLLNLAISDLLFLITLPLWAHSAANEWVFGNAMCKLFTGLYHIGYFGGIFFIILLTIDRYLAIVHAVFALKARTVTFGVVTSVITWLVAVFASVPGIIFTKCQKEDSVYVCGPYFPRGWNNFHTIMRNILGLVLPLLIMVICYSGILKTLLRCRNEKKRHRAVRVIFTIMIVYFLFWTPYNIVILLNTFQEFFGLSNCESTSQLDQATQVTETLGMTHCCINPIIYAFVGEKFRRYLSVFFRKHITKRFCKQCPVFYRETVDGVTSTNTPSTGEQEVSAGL
Assay type: cell-based
Protocol: Calcium Mobilization Assay
CHOK1-CCR2B-A5 cells (from Euroscreen) stably overexpressing the human chemokine receptor 2 isoform B were cultured in Nutrient Hams F12 medium supplemented with 5% FBS, 100 U/ml penicillin, 100 μg/ml streptomycin, 400 μg/ml G418 and 5 μg/ml puromycin.
For the assay cells were grown overnight in 384-well black clear flat bottom polystyrene plates (Costar) at 37° C. at 5% CO2. After washing with DMEM, 20 mM Hepes, 2.5 mM probenecid, 0.1% BSA (DMEM assay buffer) cells were loaded with 4 μM Fluo-4 in the same DMEM assay buffer for 2 hours at 30° C. Excess dye was removed and cells were washed with DMEM assay buffer. 384-well compound plates were prepared with DMEM assay buffer/0.5% DMSO with or without various concentrations of test compounds. Usually compounds were tested for agonist and antagonist activity.
Test compounds were added to the assay plate and agonist activity was monitored as fluorescence for 80 seconds with a FLIPR (488 nm excitation; 510-570 nm emission; Molecular Devices). After 20-30 min. of incubation at 30° C., 20 nM MCP-1 (R&D; Roche) was added and fluorescence was monitored again for 80 seconds. Increases in intracellular calcium are reported as maximum fluorescence after agonist exposure minus basal fluorescence before exposure. Antagonist activity is indicated as inhibitor concentration required for 50% inhibition of specific calcium increases.

Structure (SMILES) | IC50 [nM]
Cc1cc(-c2cccc(C(F)(F)F)c2)c(C(=O)N2CCNCC2)nc1C(=O)N1CCC(N2CCCC2)CC1 [Example 61, [5-Methyl-6-(4-pyrrolidin-1-yl-piperidine-1-carbonyl)-3-(3-trifluoromethyl-phenyl)-pyridin-2-yl]-piperazin-1-yl-methanone] | 320
Cc1cc(-c2cccc(C(F)(F)F)c2)c(Oc2cccnc2)nc1C(=O)N1CCC(N2CCCC2)CC1 [Example 62, [3-Methyl-6-(pyridin-3-yloxy)-5-(3-trifluoromethyl-phenyl)-pyridin-2-yl]-(4-pyrrolidin-1-yl-piperidin-1-yl)-methanone] | 69
Cc1cc(-c2cccc(C(F)(F)F)c2)c(=O)n(C)c1C(=O)N1CCC(N2CCCC2)CC1 [Example 63, 1,5-Dimethyl-6-(4-pyrrolidin-1-yl-piperidine-1-carbonyl)-3-(3-trifluoromethyl-phenyl)-1H-pyridin-2-one] | 32
Cc1cc(-c2cccc(C(F)(F)F)c2)c(S)nc1C(=O)N1CCC(N2CCCC2)CC1 [Example 64, [6-Mercapto-3-methyl-5-(3-trifluoromethyl-phenyl)-pyridin-2-yl]-(4-pyrrolidin-1-yl-piperidin-1-yl)-methanone; [3-Methyl-6-thioxo-5-(3-trifluoromethyl-phenyl)-1,6-dihydro-pyridin-2-yl]-(4-pyrrolidin-1-yl-piperidin-1-yl)-methanone (tautomers)] | 300
Cc1cc(-c2cccc(C(F)(F)F)c2)c2nnnn2c1C(=O)N1CCC(N2CCCC2)CC1 [Example 65, [6-Methyl-8-(3-trifluoromethyl-phenyl)-tetrazolo[1,5-a]pyridin-5-yl]-(4-pyrrolidin-1-yl-piperidin-1-yl)-methanone] | 7.6
Cc1cc(-c2cccc(C(F)(F)F)c2)c(OCCO)nc1C(=O)N1CCC(N2CCCC2)CC1 [Example 66, [6-(2-Hydroxy-ethoxy)-3-methyl-5-(3-trifluoromethyl-phenyl)-pyridin-2-yl]-(4-pyrrolidin-1-yl-piperidin-1-yl)-methanone] | 200
Cc1cc(-c2cc(C(F)(F)F)ccc2F)c[n+]([O-])c1C(=O)N1CCC(N2CCCC2)CC1 [Example 67, [5-(2-Fluoro-5-trifluoromethyl-phenyl)-3-methyl-1-oxy-pyridin-2-yl]-(4-pyrrolidin-1-yl-piperidin-1-yl)-methanone] | 59
